# Patent publication US11191874B2, “Biomaterials for neuronal implants and use of said biomaterials in the diagnosis and therapy of neuronal diseases” (Albert-Ludwigs-U[…], priority 2014, dated 2021)
# Entries after “also recorded” stand apart in the source; their conditions may differ. Where no end group is shown, it is not given here.
# Legend:
# [1] = system: rat hippocampal neurons and astrocytes; test: Neuron-astrocyte association in mixed primary hippocampal cultures; assay type: cell-based; conditions: GsMTx4 5 μM, smooth glass substrates
# Source text: The inventors therefore evaluated the response of mixed primary cultures of rat hippocampal neurons and astrocytes to the different roughness regimes.
# An also remarkable finding was that nanoroughness appeared to modulate the relationship, and dependency of neurons on astrocytes. […] After 5 days, the percent neurons that were associated with astrocytes on the 32 nm Rq surface was around 15%, which was 1.5-2 fold lower than those on other Rq's, which ranged from 20-40%, and 6 fold lower than that on the smooth glass substrate (FIG. 4c). That is, in comparison to the other Rq's, over twice as many neurons on 32 nm Rq surface were surviving independently of astrocytes. At 6 weeks however, the percent of neurons that were surviving independently of astrocytes on the 32 nm Rq was over 6 fold greater in comparison to the other Rq's. While over 90% of neurons were associated with astrocytes on other roughnesses, only 15% of neurons were associated with astrocytes on 32 nm Rq (FIG. 4d). […]
# Cell density/composition analysis: In order to analyze the cell density and composition of mixed neuron/astrocyte cultures on the different substrates at the end of the experiments, MAP-2^+, GFAP^+ and Tuj-1^+ cells were counted in 4 separately isolated cultures in 10 random image sections and on two different substrates of each isolated culture.
# hippocampal neurons = test: Calcium sensitive FURA-2 imaging of hippocampal neurons after KCl depolarization; assay type: cell-based, rat; conditions: GsMTx4, KCl depolarization
# Method: Calcium sensitive imaging: Intracellular calcium levels were measured with the cell permeable probe FURA-2-acetoxymethyl ester (Invitrogen Life Technologies GmbH). Cells were exposed to 5 μM FURA-2-AMin DMSO (final concentration of 0.2%) for 45 minutes in a humidified incubator at 37° C. Increase in intracellular calcium levels following depolarization with 50 mM KCl was analyzed by the change in the absorption and emission spectra of FURA-2 upon Ca^2+ binding using a custom-built perfusion chamber mounted to a Zeiss Observer Z1 and the ZEN blue software (Zeiss AG, Germany).The rate of intracellular Ca^2+ increase was calculated as the slope of the linear portion of the increase in FURA-2 intensity.
# GMB tumor spheroids = test: U-87 spheroid Matrigel invasion assay; assay type: cell-based; conditions: GsMTx4 in culture media, 3D matrix
# Method: Spheroids (which resemble a GBM tumor in vitro) are formed via the hanging drop procedure. For this, cells were seeded into a carboxymethylcellulose solution (with very high viscosity) and pipetted on the inner side of the lid of a cell culture plate. After reversing the lid and putting it back onto the cell culture plate, the cells are hanging in a drop of carboxymethylcellulose. Because of the high viscosity of the media and no possibility to attach, the cells form spheroids. […] During incubation cells start migrating out of the spheroid and invading the 3D matrix. The higher the invasive potential of the cells, the more they will invade the 3D matrix.
substance,measurement,setting,value
GsMTx4 (GCLEFWWKCNPNDDKCCRPKLKCSKLFKLCNFSF; ends and bridges not checked; cysteine pairing not given here),neuron-astrocyte coupling upon inhibition of Piezo-1 (FAM38A),[1],neurons decouple from astrocytes even on smooth glass substrates; also recorded: decoupling of hippocampal neurons from astrocytes
same,"FURA-2 intensity profile and rate of calcium influx upon depolarization, smooth glass versus Rq=32 nm, upon inhibition of Piezo-1",hippocampal neurons,is lost upon inhibition of Piezo-1; also recorded: identical
same,formation of sprouts from tumor spheroids (invasiveness),GMB tumor spheroids,significantly reduced; also recorded: less invasive potential
